Literature values as cited in patent publication US20130004545A1, “SLOW RELEASE PHARMACEUTICAL COMPOSITIONS OF ILOPERIDONE” (LUPIN LIMITED, priority 2009, published 2013).

Legend:
[1] = for t1/2: metabolite of iloperidone
[2] = target: 5-HT2A receptors (Homo sapiens, UniProt P28223)
[3] = system: plasma proteins; conditions: administered orally

Sequence of 5-HT2A receptors (P28223 whole entry): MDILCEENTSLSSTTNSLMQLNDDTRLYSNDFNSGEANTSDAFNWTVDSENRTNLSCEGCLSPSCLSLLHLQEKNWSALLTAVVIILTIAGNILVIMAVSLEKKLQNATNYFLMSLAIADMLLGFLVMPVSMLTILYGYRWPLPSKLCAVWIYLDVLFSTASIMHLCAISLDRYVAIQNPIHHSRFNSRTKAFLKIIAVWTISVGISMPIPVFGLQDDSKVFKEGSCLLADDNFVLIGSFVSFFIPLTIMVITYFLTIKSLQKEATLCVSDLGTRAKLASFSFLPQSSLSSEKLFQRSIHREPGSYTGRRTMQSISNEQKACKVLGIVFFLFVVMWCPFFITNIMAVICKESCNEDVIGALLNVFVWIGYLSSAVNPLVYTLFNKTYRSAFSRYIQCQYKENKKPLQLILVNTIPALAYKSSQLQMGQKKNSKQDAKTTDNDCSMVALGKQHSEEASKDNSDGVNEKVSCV

Row | tmax ([1]; metabolite, after oral administration of parent active ingredient) | binding to plasma proteins [3] | SMILES | t1/2 [1] | Plasma level relative to Iloperidone ([1]; metabolite plasma level, reported) | receptor affinity [2]
1 | 6 h |  | COc1cc(C(C)O)ccc1OCCCN1CCC(c2noc3cc(F)ccc23)CC1 (stereo not drawn) [Example P88] | 25.6 h | approximately 1.5 times that of Iloperidone | 
2 |  |  | COc1cc(C(=O)O)ccc1OCCCN1CCC(c2noc3cc(F)ccc23)CC1 [Example P95, 4-[3-[4-(6-fluoro-1,2,-benzisoxazol-3-yl)-1-piperidinyl]propoxy]-3-methoxy-benzoic acid] | 25.6 h |  | affinity for only 5-HT2A receptors
3 |  | highly bound to plasma proteins | COc1cc(C(C)=O)ccc1OCCCN1CCC(c2noc3cc(F)ccc23)CC1 [Iloperidone] |  |  | 
